ChEMBL document CHEMBL1201862, “PubChem BioAssay data set” (2004)
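Protocol summary: plate cells (96-well), add compound at 5 concentrations, incubate 48 h, interpolate endpoints linearly. The concentration for 50% growth inhibition is given as GI50.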 The source made the active and inactive calls. Cut-off read from the data, not from the text of the source: active = GI50 up to about 1.1 µM and inactive = higher.

Columns and labels:
Test in all cases: NCI-60 cell line screen, 48 h
[1] = system: OVCAR-3
[2] = system: T47D
[3] = system: PC-3
[4] = system: LOX IMVI
[5] = system: NCI-H23
[6] = system: RXF 393
[7] = system: RPMI-8226
[8] = system: SNB-19
[9] = system: M14
[10] = system: HOP-92
[11] = system: SK-MEL-28
[12] = system: OVCAR-4
[13] = system: ACHN
[14] = system: COLO 205
[15] = system: CAKI-1
[16] = system: NCI-H460
[17] = system: DU-145
[18] = system: Malme-3M
[19] = system: MDA-MB-231
[20] = system: NCI-H226

Measured: GI50

O=C1CSC(c2cccc(Cl)c2)N1c1c(O)c(Cl)cc(Br)c1Cl (stereo not given)
inactive: [1] 16.9 µM | [2] 17.1 µM | [3] 36.1 µM | [4] 16.3 µM | [5] 27.7 µM | [6] 16.7 µM | [7] 15.9 µM | [8] > 100 µM | [9] > 100 µM | [10] 15.1 µM | [11] > 100 µM | [12] 14.9 µM | [13] 14.8 µM | [14] 23.5 µM | [15] > 100 µM | [16] > 100 µM | [17] > 100 µM | [18] > 100 µM | [19] 14 µM | [20] 30.2 µM

CC[N+](C)(CC)CCN1C(=O)c2ccccc2S1(=O)=O
inactive: [1] > 100 µM | [2] > 100 µM | [3] > 100 µM | [4] > 100 µM | [5] > 100 µM | [6] > 100 µM | [7] > 100 µM | [8] > 100 µM | [9] > 100 µM | [10] > 100 µM | [11] > 100 µM | [12] > 100 µM | [13] > 100 µM | [14] > 100 µM | [15] > 100 µM | [16] > 100 µM | [17] > 100 µM | [18] > 100 µM | [19] > 100 µM | [20] > 100 µM

Cc1ccc(S(=O)(=O)N/N=C2\CCCCCCCCCCC2CN(C)C)cc1 (stereo not given)
inactive: [1] 17.5 µM | [2] 13.4 µM | [3] 15.3 µM | [4] 17.1 µM | [5] 23 µM | [6] 11.6 µM | [7] 38.7 µM | [8] 15.5 µM | [9] 17.1 µM | [10] 10.3 µM | [11] 14.8 µM | [12] 18 µM | [13] 20.1 µM | [14] 17.4 µM | [15] 26.7 µM | [16] 12.4 µM | [17] 18.5 µM | [18] 16.6 µM | [19] 18.9 µM | [20] 15.7 µM

C=CCN1C(=O)/C(=C/c2ccccc2)NC1=S
inactive: [1] > 100 µM | [2] > 100 µM | [3] > 100 µM | [4] > 100 µM | [5] > 100 µM | [6] > 100 µM | [7] 48.5 µM | [8] > 100 µM | [9] > 100 µM | [10] > 100 µM | [11] > 100 µM | [12] > 100 µM | [13] > 100 µM | [14] > 100 µM | [15] > 100 µM | [16] > 100 µM | [17] > 100 µM | [18] > 100 µM | [19] > 100 µM | [20] 15.6 µM

Cn1cnc([N+](=O)[O-])c1[Se]c1nc(N)nc2c1ncn2C1OC(CO)C(O)C1O (stereo not given)
inactive: [1] > 100 µM | [2] > 100 µM | [3] > 100 µM | [4] > 100 µM | [5] > 100 µM | [6] > 100 µM | [7] > 100 µM | [8] > 100 µM | [9] > 100 µM | [10] > 100 µM | [11] > 100 µM | [12] > 100 µM | [13] > 100 µM | [14] > 100 µM | [15] > 100 µM | [16] > 100 µM | [17] > 100 µM | [18] > 100 µM | [19] > 100 µM | [20] > 100 µM

Cc1ccc([S+](c2ccccc2)c2cc(C)ccc2C)cc1.O=C(OC(C(=O)[O-])C(OC(=O)c1ccccc1)C(=O)O)c1ccccc1 (stereo not given)
inactive: [1] 3.14 µM | [2] 6.98 µM | [3] 2.83 µM | [4] 6.85 µM | [5] 3.82 µM | [6] 34 µM | [7] 2 µM | [8] 4.83 µM | [9] 18.9 µM | [10] 13.5 µM | [11] 17.6 µM | [12] 46 µM | [13] 22.9 µM | [14] 4.26 µM | [15] 14.6 µM | [16] 10.7 µM | [17] 34.2 µM | [18] 44.9 µM | [19] 16.9 µM | [20] 15.4 µM

CCN(CC)CC1CCCCN1CC(=O)N1c2ccccc2NC(=O)c2ccccc21 (stereo not given)
inactive: [1] > 100 µM | [2] > 100 µM | [3] > 100 µM | [4] > 100 µM | [5] > 100 µM | [6] > 100 µM | [7] > 100 µM | [8] > 100 µM | [9] > 100 µM | [10] > 100 µM | [11] > 100 µM | [12] > 100 µM | [13] > 100 µM | [14] > 100 µM | [15] > 100 µM | [16] > 100 µM | [17] > 100 µM | [18] > 100 µM | [19] > 100 µM | [20] > 100 µM

C=CCN1C(=O)CNC1=S
inactive: [1] > 100 µM | [2] > 100 µM | [3] > 100 µM | [4] > 100 µM | [5] > 100 µM | [6] > 100 µM | [7] > 100 µM | [8] > 100 µM | [9] > 100 µM | [10] > 100 µM | [11] > 100 µM | [12] > 100 µM | [13] > 100 µM | [14] > 100 µM | [15] > 100 µM | [16] > 100 µM | [17] > 100 µM | [18] > 100 µM | [19] > 100 µM | [20] > 100 µM

CCO[C@@]1(COCc2ccccc2)OC(=O)C[C@@H]1N1C(=O)OC[C@@H]1c1ccccc1
inactive: [1] 41.5 µM | [2] > 100 µM | [3] > 100 µM | [4] > 100 µM | [5] > 100 µM | [6] > 100 µM | [7] > 100 µM | [8] > 100 µM | [9] > 100 µM | [10] > 100 µM | [11] > 100 µM | [12] > 100 µM | [13] > 100 µM | [14] > 100 µM | [15] 25.8 µM | [16] > 100 µM | [17] > 100 µM | [18] > 100 µM | [19] > 100 µM | [20] > 100 µM

Cc1cc2c(c(/C=N/c3ccc(N(C)C)cc3)c1)OC1(C=C2)Oc2ccccc2C(=O)N1C (stereo not given)
inactive: [1] > 35.2 µM | [2] 12.5 µM | [3] > 35.5 µM | [4] 13 µM | [5] 12.5 µM | [6] 11.7 µM | [7] 5.96 µM | [8] 7.96 µM | [9] 14.5 µM | [10] 16.4 µM | [11] 16 µM | [12] 12.6 µM | [13] 12.2 µM | [14] 17.5 µM | [15] 14.6 µM | [16] 18.7 µM | [17] 14 µM | [18] 17.7 µM | [19] 3.53 µM | [20] 23.9 µM

COC1=CC(=O)C[C@@H](C)[C@]12Oc1c(Cl)c(OC)cc(OC)c1C2=O [GRISEOFULVIN]
inactive: [1] 37.3 µM | [2] 38.2 µM | [3] 10.8 µM | [4] 18.7 µM | [5] 42.1 µM | [6] 10.5 µM | [7] 19.4 µM | [8] 35.2 µM | [9] 9.48 µM | [10] > 34.3 µM | [11] 99.3 µM | [12] 38.2 µM | [13] 67.3 µM | [14] 9.89 µM | [15] 9.53 µM | [16] 28 µM | [17] 39.7 µM | [18] 76.4 µM | [19] 6.41 µM | [20] 52.8 µM
